Measurements as given in article PMC7016953 (Cells, 2020).

Experiments:
parental HEK293 cells = assay: MTT cell viability assay; type: cell-based, human; details: 24 h
Procedure: Cells were seeded in poly-L-lysine-coated 96-well plates at a density of 10,000 cells per well. After 24 h, the medium was exchanged, and compounds or the corresponding solvent were added and incubated for another 24 h. Then, the medium was removed, and a fresh medium containing 0.5 mg/mL MTT was added. After 3 h of incubation, supernatants were aspirated, and cells containing formazan crystals were lysed with 100% DMSO. Finally, absorbance of DMSO-dissolved formazan was measured at 560 and 670 nm with a plate reader (Polarstar Omega, BMG Labtech, Germany). The differences of both extinctions were calculated, and values were normalized to a solvent control (0.25% DMSO).

mTRPM3α2 = assay: Selectivity profiling, fluo-4 [Ca2+]i response, TRPM3; type: cell-based, mouse; details: 100 µM
Procedure: Human embryonic kidney 293 (HEK293) cells were stably transfected with expression plasmids that encode hTRPC3-YFP, hTRPC6-YFP, hTRPC7-YFP, mTRPC4ß-YFP, rTRPV1-CFP, rTRPV2-YFP, rTRPV3-YFP, mTRPV4-YFP, or hTRPM2 as previously described. Cell lines were cultured in Earle’s minimum essential medium (MEM; Sigma, Munich, Germany), supplemented with 10% fetal calf serum (Gibco Thermo Fisher Scientific, Darmstadt, Germany), 2 mM L-glutamine, and required concentrations of geneticin in a range of 0.4–1 mg/mL. A HEK293mTRPC5-YFP cell line was maintained and induced as described before. […] For electrophysiological and single cell [Ca^2+]i imaging experiments, PC12 cells were plated onto 25 mm poly-L-lysine-coated glass coverslips and measured 24–48 h after seeding. […]
The primary compound screen and the generation of concentration response curves in HEK293 cells or in PC12 cells were performed by using a custom-made fluorescence plate imager built into a robotic liquid handling station equipped with a 96-tip multichannel head (Freedom Evo 150, Tecan, Männedorf, Switzerland) as described previously. […] Plates were mounted on the imager, and fluorescence signals were recorded with a cooled Zyla 5.5 camera (Andor, Belfast, UK) through a 515 nm long pass filter. […] When inhibitory potencies were evaluated, a second pipetting step with the respective reference agonist was performed. […]

mouse TRPC3 ortholog = test system: T1, mouse TRPC3 ortholog; assay: Single-cell [Ca2+]i analysis, fura-2-loaded HEK293 cells transiently overexpressing mouse TRPC3; type: cell-based; details: 50 µM, mean and S.D., n = 215 single cells; basal 311 ± 134 nM
T1 construct: expressed in transfected cells; host or cells: HEK293, transient
Procedure: The microfluorometric single-cell [Ca^2+]i analysis was performed on an inverted epifluorescence microscope (Carl Zeiss, Jena, Germany) and calibrated as described. Cells were grown on 25 mm coverslips and loaded with 4 µM fura-2/AM (AAT Bioquest, Sunnyvale, CA, U.S.A.) in HBS containing 0.2% BSA for 30 min at 37 °C. After gently rinsing the coverslips with HBS, coverslips were mounted in a bath chamber and superfused with HBS containing 0.035% BSA.

TRPC7 = test system: T2, TRPC7; assay: Microfluorometric single-cell [Ca2+]i analysis, fura-2-loaded HEK cells stably expressing TRPC7; type: cell-based, human; details: 50 µM
T2 construct: expressed in transfected cells
Procedure: The microfluorometric single-cell [Ca^2+]i analysis was performed on an inverted epifluorescence microscope (Carl Zeiss, Jena, Germany) and calibrated as described. Cells were grown on 25 mm coverslips and loaded with 4 µM fura-2/AM (AAT Bioquest, Sunnyvale, CA, U.S.A.) in HBS containing 0.2% BSA for 30 min at 37 °C. […] Experiments were performed either in standard bath solution, containing 1 mM Ca^2+ (black lines and bars), or in a nominally Ca^2+-free HBS buffer, supplemented with 200 µM EGTA (grey lines and bars). Time courses of averaged responses (left), and statistical analysis of 6–11 independent imaging experiments with means and S.D. (right) are shown. Significant differences (p < 0.05, Student´s t-test with paired data: #, with unpaired data: *) are marked for the indicated comparisons; n.s.: difference is statistically not significant.

## C[C@@H]1CC[C@H]2[C@@H](C)C(=O)O[C@@H]3O[C@@]4(C)CC[C@@H]1[C@]32OO4 [artemisinin]
Parental HEK293 cells; 100 µM
  metabolic activity (MTT test): slight and statistically significant reduction of metabolic activity
Parental HEK293 cells; concentrations up to 50 µM
  metabolic activity (MTT test): did not reduce the metabolic activity
mTRPM3α2
  [Ca2+]i response, TRPM3: none of the cell lines responded
Mouse TRPC3 ortholog
  [Ca2+]i reached after stimulation: 1140 ± 635 nM
TRPC7; nominally Ca2+-free HBS with 200 µM EGTA
  [Ca2+]i signal in TRPC7-expressing cells in Ca2+-free bath: abolished
TRPC7; standard bath 1 mM Ca2+
  [Ca2+]i response in TRPC7-overexpressing cells: only a weak [Ca^2+]i signal
